Where two headings read alike, the source gives them in different places.
Tested on: Phytophthora infestans
Assay type: in vivo, Phytophthora infestans on tomato plants
Settings: individual active compound, tomato leaves, protective, rated after 6 days

Row | SMILES | Efficacy in % of the untreated control (1 ppm in the spray liquor) [%] | Efficacy in % of the untreated control (0.25 ppm in the spray liquor) [%] | Efficacy in % of the untreated control (4 ppm in the spray liquor) [%]
1 | Cc1c(Br)c2ccc(F)cc2n1S(=O)(=O)c1ncn(S(=O)(=O)N(C)C)n1 [I-62, Tab.7 (IA), N,N-dimethyl-3-(3-bromo-6-fluoro-2-methylindole-1-sulfonyl)-[1,2,4]triazole-1-sulfonamide] | 56 | – | –
2 | CC1CCN(c2c(-c3c(F)cc(F)cc3F)c(Cl)nc3ncnn23)CC1 [II, 5-chloro-7-(4-methylpiperidin-1-yl)-6-(2,4,6-trifluorophenyl)-[1,2,4]triazolo[1,5-a]pyrimidine] | 0 | 0 | 0

Source: patent publication US7601673B2 (priority 2004, dated 2009)
